Holding throughout (format): functional
The subject of assay [1] is Mus musculus. The assay is described as follows: Reduction in plasma LDL level in LDL receptor/ApoE deficient mouse at 10 umol/kg/day dosed via gavage route once daily in afternoon for first three days and in morning the last day by FPLC method relative to untreated control. Also noted: scale not given: the % may be the effect or the level left.
Assay [2] deals with Mus musculus. The assay is described as follows: Effect on plasma triglyceride level in LDL receptor/ApoE deficient mouse at 10 umol/kg/day dosed via gavage route once daily in afternoon for first three days and in morning the last day relative to untreated control.
The test system of assay [3] is Mus musculus. The assay can be described thus: Effect on plasma triglyceride level in LDL receptor/ApoE deficient mouse at 10 umol/kg/day dosed via gavage route and co-administered with 80 to 100 mg/kg/day mixed with R3 chow diet for 7 days relative to untreated control.
The test system of assay [4] is Mus musculus. The assay can be described thus: Reduction in plasma cholesterol in LP-remnants in LDL receptor/ApoE deficient mouse at 10 umol/kg/day dosed via gavage route once daily in afternoon for first three days and in morning the last day by FPLC method relative to untreated control. Details: scale not given: the % may be the effect or the level left.
The test system of assay [5] is Mus musculus. The assay can be described thus: Reduction in plasma total cholesterol level in LDL receptor/ApoE deficient mouse at 0.625 umol/kg/day dosed via gavage route once daily in afternoon for first three days and in morning the last day by FPLC method relative to untreated control. Also noted: scale not given: the % may be the effect or the level left.
Assay [6] relates to Mus musculus. The assay can be described thus: Reduction in plasma cholesterol in LP-remnants in LDL receptor/ApoE deficient mouse at 10 umol/kg/day dosed via gavage route and co-administered with 80 to 100 mg/kg/day mixed with R3 chow diet for 7 days relative to untreated control. Also noted: scale not given: the % may be the effect or the level left.
Assay [7] concerns Mus musculus. The assay can be described thus: Reduction in plasma cholesterol in LP-remnants plus LDL/HDL ratio level in LDL receptor/ApoE deficient mouse at 10 umol/kg/day dosed via gavage route and co-administered with 80 to 100 mg/kg/day mixed with R3 chow diet for 7 days relative to untreated control. Details: scale not given: the % may be the effect or the level left.
Assay [8] relates to Mus musculus. The assay can be described thus: Reduction in plasma total cholesterol level in LDL receptor/ApoE deficient mouse at 10 umol/kg/day dosed via gavage route once daily in afternoon for first three days and in morning the last day by FPLC method relative to untreated control. Also noted: scale not given: the % may be the effect or the level left.
Assay [9] has as its system Mus musculus. The assay is described as follows: Reduction in plasma LDL level in LDL receptor/ApoE deficient mouse at 10 umol/kg/day dosed via gavage route and co-administered with 80 to 100 mg/kg/day mixed with R3 chow diet for 7 days relative to untreated control. Details: scale not given: the % may be the effect or the level left.
The test system of assay [10] is Mus musculus. The assay can be described thus: Reduction in plasma LDL level in LDL receptor/ApoE deficient mouse at […] dosed via gavage route once daily in afternoon for first three days and in morning the last day by FPLC method relative to untreated control. Also noted: scale not given: the % may be the effect or the level left.
Assay [11] has as its system Mus musculus. The assay can be described thus: Reduction in plasma total cholesterol level in LDL receptor/ApoE deficient mouse at […] dosed via gavage route once daily in afternoon for first three days and in morning the last day by FPLC method relative to untreated control. Also noted: scale not given: the % may be the effect or the level left.
For assay [12], the system named is Mus musculus. The assay can be described thus: Reduction in plasma total cholesterol level in LDL receptor/ApoE deficient mouse at 10 umol/kg/day dosed via gavage route and co-administered with 80 to 100 mg/kg/day mixed with R3 chow diet for 7 days relative to untreated control. Details: scale not given: the % may be the effect or the level left.
Assay [13] relates to Mus musculus. The assay is described as follows: Reduction in plasma cholesterol in LP-remnants plus LDL/HDL ratio level in LDL receptor/ApoE deficient mouse at 10 umol/kg/day dosed via gavage route once daily in afternoon for first three days and in morning the last day by FPLC method relative to untreated control. Also noted: scale not given: the % may be the effect or the level left.

The test system of assay [14] is Mus musculus. The assay is described as follows: Effect on plasma HDL level in LDL receptor/ApoE deficient mouse at 10 umol/kg/day dosed via gavage route and co-administered with 80 to 100 mg/kg/day mixed with R3 chow diet for 7 days relative to untreated control.
Assay [15] relates to Mus musculus. The assay is described as follows: Effect on plasma HDL level in LDL receptor/ApoE deficient mouse at 10 umol/kg/day dosed via gavage route once daily in afternoon for first three days and in morning the last day by FPLC method relative to untreated control.
Assay [16] deals with Mus musculus. The assay is described as follows: Effect on plasma HDL level in LDL receptor/ApoE deficient mouse at 80 to 100 mg/kg/day mixed with R3 chow diet by FPLC method relative to untreated control.
For assay [17], the system named is Mus musculus. The assay is described as follows: Reduction in plasma LDL level in LDL receptor/ApoE deficient mouse at 80 to 100 mg/kg/day mixed with R3 chow diet by FPLC method relative to untreated control. Details: scale not given: the % may be the effect or the level left.

Consider two molecules from ChEMBL document CHEMBL3881524, “Use of benzothiazepines having activity as inhibitors of ileal bile acid transport for reducing cholesterololemia” (2005).

For the molecule `CCCC[C@]1(CC)CS(=O)(=O)c2cc(O[C@@H]3O[C@H](C(=O)O)[C@@H](O)[C@H](O)[C@H]3O)ccc2[C@@H](c2ccccc2)N1`, the Activity is on record as 20 - 29% in the assay with Mus musculus [1]; 7 - 23% in the assay with Mus musculus [2]; 43% in the assay on Mus musculus [3]; 54 - 62% with Mus musculus [4]; 9% in the assay with Mus musculus [5]; 69% with Mus musculus [6]. In addition, the Activity in the assay on Mus musculus [7] is given as 71%; in the assay on Mus musculus [8] it was 35 - 42%; in the assay on Mus musculus [9] it was 64%; in the assay on Mus musculus [10] it was 14%; in the assay with Mus musculus [11], 28%; with Mus musculus [12] it was 64%. The Activity is recorded as 54 - 55% in the assay on Mus musculus [13], 15% in the assay on Mus musculus [14] and 22 - 36% with Mus musculus [15].
Regarding `CC(C)c1c(C(=O)Nc2ccccc2)c(-c2ccccc2)c(-c2ccc(F)cc2)n1CC[C@@H](O)C[C@@H](O)CC(=O)[O-].CC(C)c1c(C(=O)Nc2ccccc2)c(-c2ccccc2)c(-c2ccc(F)cc2)n1CC[C@@H](O)C[C@@H](O)CC(=O)[O-].[Ca+2]` [ATORVASTATIN CALCIUM], the Activity was determined as 22% in the assay with Mus musculus [16] and 43% in the assay with Mus musculus [17].
